Data on 21 compounds can be found in patent US20250326749A1, “COMPOUNDS, COMPOSITIONS, AND METHODS OF USING THEREOF” (Sionna Therapeutics Inc., priority 2022, published 2025).

The target of this assay is T1, ΔF508-CFTR (Homo sapiens, UniProt P13569, DEL508-508).
T1 construct: expressed in transfected cells; host or cells: CFSMEo- (human CF submucosal gland epithelial cells, ΔF508/Q2X), transiently transfected by nucleofection
T1 sequence (P13569 with tags, fused parts or gaps DEL508-508): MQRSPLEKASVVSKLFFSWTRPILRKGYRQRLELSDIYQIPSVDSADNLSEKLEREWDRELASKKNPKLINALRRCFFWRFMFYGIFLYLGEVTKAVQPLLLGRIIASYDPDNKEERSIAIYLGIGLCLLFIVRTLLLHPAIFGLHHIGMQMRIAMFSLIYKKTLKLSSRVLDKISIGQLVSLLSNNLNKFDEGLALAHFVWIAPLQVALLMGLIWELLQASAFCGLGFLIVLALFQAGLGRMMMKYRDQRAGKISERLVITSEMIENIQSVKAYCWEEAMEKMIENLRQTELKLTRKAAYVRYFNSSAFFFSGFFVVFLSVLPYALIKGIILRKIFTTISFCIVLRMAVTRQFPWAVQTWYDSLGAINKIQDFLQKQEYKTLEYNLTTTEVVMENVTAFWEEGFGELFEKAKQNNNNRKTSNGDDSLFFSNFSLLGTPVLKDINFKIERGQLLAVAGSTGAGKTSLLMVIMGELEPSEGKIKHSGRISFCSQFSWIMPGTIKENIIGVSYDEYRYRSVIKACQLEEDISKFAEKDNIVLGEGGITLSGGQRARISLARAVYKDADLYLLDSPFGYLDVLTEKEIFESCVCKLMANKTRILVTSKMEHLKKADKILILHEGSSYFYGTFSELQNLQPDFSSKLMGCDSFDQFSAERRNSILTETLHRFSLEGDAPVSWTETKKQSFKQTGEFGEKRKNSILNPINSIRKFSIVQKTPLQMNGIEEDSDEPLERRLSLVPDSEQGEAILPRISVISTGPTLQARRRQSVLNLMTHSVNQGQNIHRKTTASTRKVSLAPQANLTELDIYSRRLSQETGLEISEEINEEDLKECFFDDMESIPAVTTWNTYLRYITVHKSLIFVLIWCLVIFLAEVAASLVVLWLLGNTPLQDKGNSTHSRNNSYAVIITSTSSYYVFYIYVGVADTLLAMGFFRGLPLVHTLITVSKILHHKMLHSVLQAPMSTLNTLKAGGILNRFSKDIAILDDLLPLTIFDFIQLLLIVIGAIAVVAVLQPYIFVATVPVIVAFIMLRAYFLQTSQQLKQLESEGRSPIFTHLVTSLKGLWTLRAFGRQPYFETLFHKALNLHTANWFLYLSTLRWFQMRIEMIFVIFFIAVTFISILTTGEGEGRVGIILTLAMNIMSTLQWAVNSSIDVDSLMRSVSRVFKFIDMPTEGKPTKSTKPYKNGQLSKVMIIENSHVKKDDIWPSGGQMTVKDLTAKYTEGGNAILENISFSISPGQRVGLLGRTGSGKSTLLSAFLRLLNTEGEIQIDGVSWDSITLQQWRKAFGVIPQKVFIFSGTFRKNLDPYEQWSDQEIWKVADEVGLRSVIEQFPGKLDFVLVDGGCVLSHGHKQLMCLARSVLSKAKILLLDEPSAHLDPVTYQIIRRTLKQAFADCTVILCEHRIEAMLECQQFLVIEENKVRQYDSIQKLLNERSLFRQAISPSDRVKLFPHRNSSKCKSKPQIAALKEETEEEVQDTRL
In words: ΔF508-CFTR-HRP trafficking assay (cell surface expression of ΔF508-CFTR). Type of assay: cell-based. The note with it: CFSMEo- cells transiently transfected with ΔF508-CFTR-HRP; test agent 3 μM, 48 h; HRP chemiluminescence. Summed up: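 Surface-expressed ΔF508-CFTR measured via extracellular HRP tag: cell-impermeable chemiluminescent substrate, 5 min, signal normalized to 0.3% DMSO vehicle.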
Turning to `C[C@@H](Oc1cc(-n2nc(C(F)(F)F)c3c2C(Oc2ccc(C(=O)O)cc2)CCC3)ccn1)c1ccc2c(c1)OC(F)(F)O2` (stereo partly drawn) [Example 21, 4-[[1-[2-[(1R)-1-(2,2-difluoro-1,3-benzodioxol-5-yl)ethoxy]-4-pyridyl]-3-(trifluoromethyl)-4,5,6,7-tetrahydroindazol-7-yl]oxy]benzoic acid], the “RLUs: ΔF508-CFTR-HRP trafficking data normalized to the vehicle treated control (0.3% DMSO)” value is “A (RLU 5.0 μM-10 μM)”.
The result for `C[C@H](Oc1cc(-n2nc(C(F)(F)F)c3c2C(Oc2ccc(C(=O)O)cc2)CCC3)ccn1)c1ccc2c(c1)OC(F)(F)O2` (stereo partly drawn) [Example 22, 4-[[1-[2-[(1S)-1-(2,2-difluoro-1,3-benzodioxol-5-yl)ethoxy]-4-pyridyl]-3-(trifluoromethyl)-4,5,6,7-tetrahydroindazol-7-yl]oxy]benzoic acid] reads “B (RLU 3.5 μM-5.0 μM)”.
Regarding `C[C@H](Oc1cccc(-n2nc(C(F)(F)F)c3c2C(Oc2ccc(C(=O)O)cc2)CCC3)c1)c1ccc2c(c1)OC(F)(F)O2` (stereo partly drawn) [Example 29], the “RLUs: ΔF508-CFTR-HRP trafficking data normalized to the vehicle treated control (0.3% DMSO)” value is listed as “B (RLU 3.5 μM-5.0 μM)”.
The result for `C[C@@H](Oc1cccc(-n2nc(C(F)(F)F)c3c2C(Oc2ccc(C(=O)O)cc2)CCC3)c1)c1cc2c(cn1)OC(F)(F)O2` (stereo partly drawn) [Example 30] reads “B (RLU 3.5 μM-5.0 μM)”; that for `C[C@H](Oc1cccc(-n2nc(C(F)(F)F)c3c2C(Oc2ccc(C(=O)O)cc2)CCC3)c1)c1cc2c(cn1)OC(F)(F)O2` (stereo partly drawn) [Example 31], “C (RLU 0.0 μM-3.5 μM)”; that for `C[C@@H](Oc1cccc(-n2nc(C(F)(F)F)c3c2C(Oc2ccc(C(=O)O)cc2)CCC3)c1)c1cc2c(cc1F)OC(F)(F)O2` (stereo partly drawn) [Example 32, 4-[[1-[3-[(1R)-1-(2,2,6-trifluoro-1,3-benzodioxol-5-yl)ethoxy]phenyl]-3-(trifluoromethyl)-4,5,6,7-tetrahydroindazol-7-yl]oxy]benzoic acid], “B (RLU 3.5 μM-5.0 μM)”.
The result for `C[C@H](Oc1cccc(-n2nc(C(F)(F)F)c3c2C(Oc2ccc(C(=O)O)cc2)CCC3)c1)c1cc2c(cc1F)OC(F)(F)O2` (stereo partly drawn) [Example 33, 4-[[1-[3-[(1S)-1-(2,2,6-trifluoro-1,3-benzodioxol-5-yl)ethoxy]phenyl]-3-(trifluoromethyl)-4,5,6,7-tetrahydroindazol-7-yl]oxy]benzoic acid] reads “B (RLU 3.5 μM-5.0 μM)”.
For the compound `Cc1cc(OC2CCCc3c(C(F)(F)F)nn(-c4cccc(O[C@@H](C)c5cc6c(cc5F)OC(F)(F)O6)c4)c32)ccc1C(=O)O` (stereo partly drawn) [Example 35], the “RLUs: ΔF508-CFTR-HRP trafficking data normalized to the vehicle treated control (0.3% DMSO)” value was “B (RLU 3.5 μM-5.0 μM)”.
The result for `C[C@@H](Oc1cccc(-n2nc(C(F)(F)F)c3c2C(O[C@H]2CC[C@H](C(=O)O)CC2)CCC3)c1)c1ccc2c(c1)OC(F)(F)O2` (stereo partly drawn) [Example 38] reads “A (RLU 5.0 μM-10 μM)”; that for `C[C@@H](Oc1cc(-n2nc(C(F)(F)F)c3c2C(OC24CC(C(=O)O)(C2)C4)CCC3)ccn1)c1ccc2c(c1)OC(F)(F)O2` (stereo partly drawn) [Example 40], “A (RLU 5.0 μM-10 μM)”; that for `C[C@@H](Oc1cccc(-n2nc(C(F)(F)F)c3c2C(OC24CC(C(=O)O)(C2)C4)CCC3)c1)c1ccc2c(c1)OC(F)(F)O2` (stereo partly drawn) [Example 41, 3-[[1-[3-[(1R)-1-(2,2-difluoro-1,3-benzodioxol-5-yl)ethoxy]phenyl]-3-(trifluoromethyl)-4,5,6,7-tetrahydroindazol-7-yl]oxy]bicyclo[1.1.1]pentane-1-carboxylic acid], “A (RLU 5.0 μM-10 μM)”.
Turning to `C[C@H](Oc1cc(-n2nc(C(F)(F)F)c3c2[C@@H](OC24CC(C(=O)O)(C2)C4)CCC3)ccn1)c1ccc2c(c1)OC(F)(F)O2` [Example 51], the “RLUs: ΔF508-CFTR-HRP trafficking data normalized to the vehicle treated control (0.3% DMSO)” value is listed as “A (RLU 5.0 μM-10 μM)”.
The result for `C[C@H](Oc1cc(-n2nc(C(F)(F)F)c3c2[C@H](OC24CC(C(=O)O)(C2)C4)CCC3)ccn1)c1ccc2c(c1)OC(F)(F)O2` [Example 52, 3-[[(7R)-1-[2-[(1S)-1-(2,2-difluoro-1,3-benzodioxol-5-yl)ethoxy]-4-pyridyl]-3-(trifluoromethyl)-4,5,6,7-tetrahydroindazol-7-yl]oxy]bicyclo[1.1.1]pentane-1-carboxylic acid] reads “C (RLU 0.0 μM-3.5 μM)”; that for `C[C@H](Oc1cncc(-n2nc(C(F)(F)F)c3c2C(Nc2ccc(C(=O)O)cc2)CCC3)c1)c1ccc2c(c1)OC(F)(F)O2` (stereo partly drawn) [Example 69, 4-[[1-[5-[(1S)-1-(2,2-difluoro-1,3-benzodioxol-5-yl)ethoxy]-3-pyridyl]-3-(trifluoromethyl)-4,5,6,7-tetrahydroindazol-7-yl]amino]benzoic acid], “B (RLU 3.5 μM-5.0 μM)”; that for `C[C@H](Oc1cccc(-n2nc(C(F)(F)F)c3c2C(Sc2ccc(C(=O)O)cc2)CCC3)c1)c1ccc2c(c1)OC(F)(F)O2` (stereo partly drawn) [Example 70, 4-((1-(3-((S)-1-(2,2-difluorobenzo[d][1,3]dioxol-5-yl)ethoxy)phenyl)-3-(trifluoromethyl)-4,5,6,7-tetrahydro-1H-indazol-7-yl)thio)benzoic acid], “A (RLU 5.0 μM-10 μM)”.
For `C[C@H](Oc1cccc(-n2nc(C(F)(F)F)c3c2C(S(=O)(=O)c2ccc(C(=O)O)cc2)CCC3)c1)c1ccc2c(c1)OC(F)(F)O2` (stereo partly drawn) [Example 71, 4-[[1-[3-[(1S)-1-(2,2-difluoro-1,3-benzodioxol-5-yl)ethoxy]phenyl]-3-(trifluoromethyl)-4,5,6,7-tetrahydroindazol-7-yl]sulfonyl]benzoic acid], the “RLUs: ΔF508-CFTR-HRP trafficking data normalized to the vehicle treated control (0.3% DMSO)” value is “C (RLU 0.0 μM-3.5 μM)”.
The result for `CC(Sc1cccc(-n2nc(C(F)(F)F)c3c2C(Oc2ccc(C(=O)O)cc2)CCC3)c1)c1ccc2c(c1)OC(F)(F)O2` (stereo not drawn) [Example 116, 4-[[1-[3-[1-(2,2-difluoro-1,3-benzodioxol-5-yl)ethylsulfanyl]phenyl]-3-(trifluoromethyl)-4,5,6,7-tetrahydroindazol-7-yl]oxy]benzoic acid] reads “B (RLU 3.5 μM-5.0 μM)”.
`CC(c1ccc2c(c1)OC(F)(F)O2)[S+]([O-])c1cccc(-n2nc(C(F)(F)F)c3c2C(Oc2ccc(C(=O)O)cc2)CCC3)c1` (stereo not drawn) [Example 117, 4-[[1-[3-[1-(2,2-difluoro-1,3-benzodioxol-5-yl)ethylsulfinyl]phenyl]-3-(trifluoromethyl)-4,5,6,7-tetrahydroindazol-7-yl]oxy]benzoic acid]: the “RLUs: ΔF508-CFTR-HRP trafficking data normalized to the vehicle treated control (0.3% DMSO)” value is on record as “C (RLU 0.0 μM-3.5 μM)”.
Turning to `CC(c1ccc2c(c1)OC(F)(F)O2)S(=O)(=O)c1cccc(-n2nc(C(F)(F)F)c3c2C(Oc2ccc(C(=O)O)cc2)CCC3)c1` (stereo not drawn) [Example 118, 4-[[1-[3-[1-(2,2-difluoro-1,3-benzodioxol-5-yl)ethylsulfonyl]phenyl]-3-(trifluoromethyl)-4,5,6,7-tetrahydroindazol-7-yl]oxy]benzoic acid], the “RLUs: ΔF508-CFTR-HRP trafficking data normalized to the vehicle treated control (0.3% DMSO)” value is “C (RLU 0.0 μM-3.5 μM)”.
The result for `CC(c1ccc2c(c1)OC(F)(F)O2)C1(c2cc(-n3nc(C(F)(F)F)c4c3C(Oc3ccc(C(=O)O)cc3)CCC4)ccn2)COC1` (stereo not drawn) [Example 119, 4-[[1-[2-[3-[1-(2,2-difluoro-1,3-benzodioxol-5-yl)ethyl]oxetan-3-yl]-4-pyridyl]-3-(trifluoromethyl)-4,5,6,7-tetrahydroindazol-7-yl]oxy]benzoic] reads “C (RLU 0.0 μM-3.5 μM)”; that for `C[C@H](Oc1cccc(-n2nc(C(F)(F)F)c3c2C(S(=O)(=O)N2CCC(C(=O)O)CC2)CCC3)c1)c1ccc2c(c1)OC(F)(F)O2` (stereo partly drawn) [Example 123], “B (RLU 3.5 μM-5.0 μM)”.
